Results from patent US20050137220A1 (Pharmacia Corporation, priority 2003, published 2005).
Where a name gives a salt, the structure may show the parent alone.

Molecular target: MK-2 (Homo sapiens, UniProt P49137)
Test: Determination of MK-2 IC50 (phosphorylation of HSP-peptide, anion exchange resin capture assay)
Assay type: biochemical
Settings: MK-2 Avg. IC50, additional values are replicate IC50 experiments; mixture of stereoisomers implied unless otherwise noted

MK-2, sequence (P49137 whole entry, species assumed): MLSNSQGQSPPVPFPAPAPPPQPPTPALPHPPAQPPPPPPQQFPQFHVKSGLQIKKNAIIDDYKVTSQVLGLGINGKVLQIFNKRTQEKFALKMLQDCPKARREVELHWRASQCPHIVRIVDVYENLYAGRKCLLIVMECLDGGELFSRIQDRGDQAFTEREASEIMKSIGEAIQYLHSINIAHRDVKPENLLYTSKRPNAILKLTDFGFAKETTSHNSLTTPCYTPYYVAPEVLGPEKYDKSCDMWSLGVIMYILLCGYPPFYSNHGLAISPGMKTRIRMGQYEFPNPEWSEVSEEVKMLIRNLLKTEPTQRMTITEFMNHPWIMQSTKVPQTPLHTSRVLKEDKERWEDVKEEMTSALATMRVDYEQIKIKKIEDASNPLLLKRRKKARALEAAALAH

SMILES	IC50 [µM]
COc1ccc2[nH]c3c(c2c1)CCNC3=S [Example 97, 6-methoxy-2,3,4,9-tetrahydro-1H-beta-carboline-1-thione]	34.8

Same assay, conditions: additional values are replicate IC50 experiments; mixture of stereoisomers implied unless otherwise noted; read-out: MK-2 Avg. IC50

IC50 [µM]	SMILES
> 200	COc1ccc2[nH]c3c(c2c1)CC(Cc1ccccc1)NC3C(=O)O (stereo not drawn) [Example 193, 3-benzyl-6-methoxy-2,3,4,9-tetrahydro-1H-beta-carboline-1-carboxylic acid]
> 200	COc1ccc2[nH]c3c(c2c1)CCNC3(C)C(=O)O (stereo not drawn) [Example 237, 6-methoxy-1-methyl-2,3,4,9-tetrahydro-1H-beta-carboline-1-carboxylic acid hydrochloride]
> 200	COc1ccc2[nH]c3c(c2c1)CCNC3Cc1nnn[nH]1 (stereo not drawn) [Example 166, 6-methoxy-1-(1H-tetraazol-5-ylmethyl)-2,3,49-tetrahydro-1H-beta-carboline hydrochloride hydrate]
170	COc1ccc2[nH]c3c(c2c1)CCN(C(C)C)C3C(=O)O (stereo not drawn) [Example 157, sodium 2-isopropyl-6-methoxy-2,3,4,9-tetrahydro-1H-beta-carboline-1-carboxylate]
> 200	CCC(CC)CN1CCc2c([nH]c3ccc(OC)cc23)C1C(=O)O (stereo not drawn) [Example 197, sodium 2-(2-ethylbutyl)-6-methoxy-2,3,4,9-tetrahydro-1H-beta-carboline-1-carboxylate]
> 200	COc1ccc2c3c([nH]c2c1)C(C(=O)O)NCC3 (stereo not drawn) [Example 217, 7-methoxy-2,3,4,9-tetrahydro-1H-beta-carboline-1-carboxylic acid hydrochloride]
> 200	COc1ccc2[nH]c3c(c2c1)CCNC3CC(=O)O (stereo not drawn) [Example 165, (6-methoxy-2,3,4,9-tetrahydro-1H-beta-carbolin-1-yl)acetic acid hydrochloride]
> 200	O=C(O)C1NCCc2c1[nH]c1ccc(OCC3CCCCC3)cc21 (stereo not drawn) [Example 198, 6-(cyclohexylmethoxy)-2,3,4,9-tetrahydro-1H-beta-carboline-1-carboxylic acid]
136	COC(=O)CCC1Cc2c([nH]c3ccc(OC)cc23)C(=O)N1 (stereo not drawn) [Example 147, methyl 3-(6-methoxy-1-oxo-2,3,4,9-tetrahydro-1H-beta-carbolin-3-yl)propanoate]
> 200	COC(=O)C12CCC(=O)N1CCc1c2[nH]c2ccc(OC)cc12 (stereo not drawn) [Example 162, methyl 8-methoxy-3-oxo-2,3,6,11-tetrahydro-1H-indolizino[8,7-b]indole-11b(5H)-carboxylate]
20.4	COc1ccc2[nH]c3c(c2c1)CC(CCCO)NC3=O (stereo not drawn) [Example 81, 3-(3-hydroxypropyl)-6-methoxy-2,3,4,9-tetrahydro-1H-beta-carbolin-1-one]
> 200	COc1ccc2[nH]c3c(c2c1)CCNC3(Cc1ccccc1)C(=O)O (stereo not drawn) [Example 241, 1-benzyl-6-methoxy-2,3,4,9-tetrahydro-1H-beta-carboline-1-carboxylic acid hydrochloride]
164	CCOC(=O)CNC(=O)COc1ccc2[nH]c3c(c2c1)CCNC3C(=O)O (stereo not drawn) [Example 155, 6-[2-(2-ethoxy-2-oxoethylamino)-2-oxoethoxy]-2,3,4,9-tetrahydro-1H-beta-carboline-1-carboxylic acid hydrochloride]
> 200	COc1ccc2[nH]c3c(c2c1)CCNC3(CCCC(=O)O)C(=O)O (stereo not drawn) [Example 179, 1-(3-carboxypropyl)-6-methoxy-2,3,4,9-tetrahydro-1H-beta-carboline-1-carboxylic acid]
27.9	O=C(O)C1NCCc2c1[nH]c1ccc(OCCc3ccccc3)cc21 (stereo not drawn) [Example 87, 6-(2-phenylethoxy)-2,3,4,9-tetrahydro-1H-beta-carboline-1-carboxylic acid hydrochloride]
> 200	COC(=O)C1c2[nH]c3ccc(OC)cc3c2CCN1C(=O)OC(C)(C)C (stereo not drawn) [Example 234, 2-tert-butyl 1-methyl 6-methoxy-1,3,4,9-tetrahydro-2H-beta-carboline-1,2-dicarboxylate]
104	COc1ccc2[nH]c3c(c2c1)CCC3=NO [Example 132, 7-methoxy-1,4-dihydrocyclopenta[b]indol-3(2H)-one oxime]
> 200	COc1ccc2[nH]c3c(c2c1)CCN1CCNC(=O)C31 (stereo not drawn) [Example 192, 9-methoxy-3,4,6,7,12,12b-hexahydropyrazino[1′,2′:1,2]pyrido[3,4-b]indol-1(2H)-one]
175	COc1ccc2[nH]c3c(c2c1)CCN1C(=O)NC(=O)C31 (stereo not drawn) [Example 158, 8-methoxy-5,6,11,11b-tetrahydro-1H-imidazo[1′,5′:1,2]pyrido[3,4-b]indole-1,3(2H)-dione]
115	O=C(O)C1NCCc2c1[nH]c1ccc(OCc3ccc(C(F)(F)F)cc3)cc21 (stereo not drawn) [Example 138, 6-{[4-(trifluoromethyl)benzyl]oxy}-2,3,4,9-tetrahydro-1H-beta-carboline-1-carboxylic acid hydrochloride hydrate]

The remaining lines, values behind:

SMILES	IC50 [µM]
O/N=C1\CCCc2c1[nH]c1ccccc21 [Example 109, 2,3,4,9-tetrahydro-1H-carbazol-1-one oxime]	49.9
O=C(O)C1NCCc2c1[nH]c1cc(F)ccc21 (stereo not drawn) [Example 214, 7-fluoro-2,3,4,9-tetrahydro-1H-beta-carboline-1-carboxylic acid hydrochloride]	> 200
Cc1cccc2c3c([nH]c12)C(C(=O)O)NCC3 (stereo not drawn) [Example 215, 8-methyl-2,3,4,9-tetrahydro-1H-beta-carboline-1-carboxylic acid hydrochloride]	> 200
COC(=O)c1cccc2[nH]c3c(c12)CCNC3C(=O)O (stereo not drawn) [Example 238, 5-(methoxycarbonyl)-2,3,4,9-tetrahydro-1H-beta-carbolin-1-carboxylic acid hydrate]	> 200
O=C1NCCc2c1[nH]c1ccc([N+](=O)[O-])cc21 [Example 253, 6-nitro-2,3,4,9-tetrahydro-1H-beta-carbolin-1-one]	> 200
COc1ccc2[nH]c3c(=O)[nH]ccc3c2c1 [Example 95, 6-methoxy-2,9-dihydro-1H-beta-carbolin-1-one]	31.8
COc1ccc2[nH]c3c(c2c1)C(c1ccccc1)CNC3C(=O)O (stereo not drawn) [Example 210, 6-methoxy-4-phenyl-2,3,4,9-tetrahydro-1H-beta-carboline-1-carboxylic acid hydrochloride]	> 200
COCCOc1ccc2[nH]c3c(c2c1)CCNC3C(=O)O (stereo not drawn) [Example 135, 6-(2-methoxyethoxy)-2,3,4,9-tetrahydro-1H-beta-carboline-1-carboxylic acid]	110
O=C(O)C1NCCc2c1[nH]c1ccc(OCc3ccc4ccccc4c3)cc21 (stereo not drawn) [Example 127, 6-(2-naphthylmethoxy)-2,3,4,9-tetrahydro-1H-beta-carboline-1-carboxylic acid hydrochloride]	91.3
O=C(O)c1ccc2[nH]c3c(c2c1)CCNC3=O [Example 271, 1-oxo-2,3,4,9-tetrahydro-1H-beta-carboline-6-carboxylic acid]	> 200
O=C1NCCc2c1[nH]c1c(Cl)cccc21 [Example 262, 1H-Pyrido[3,4-b]indol-1-one,8-chloro-2,3,4,9-tetrahydro- or 8-chloro-2,3,4,9-tetrahydro-1H-beta-carbolin-1-one]	> 200
COc1ccc2[nH]c3c(c2c1C)CCNC3C(=O)O (stereo not drawn) [Example 183, 6-methoxy-5-methyl-2,3,4,9-tetrahydro-1H-beta-carboline-1-carboxylic acid hydrochloride]	> 200
COc1ccc2[nH]c3c(c2c1)CC(CC#N)NC3=O (stereo not drawn) [Example 116, (6-methoxy-1-oxo-2,3,4,9-tetrahydro-1H-beta-carbolin-3-yl)acetontrile]	68.7
COc1ccc2[nH]c3c(c2c1)CC(CN(C)C)NC3C(=O)O (stereo not drawn) [Example 187, 3-[(dimethylamino)methyl]-6-methoxy-2,3,4,9-tetrahydro-1H-beta-carboline-1-carboxylic acid trifluoroacetate]	> 200
COc1cccc2c3c([nH]c12)C(C(=O)O)NCC3 (stereo not drawn) [Example 223, 8-methoxy-2,3,4,9-tetrahydro-1H-beta-carboline-1-carboxylic acid trifluoroacetate hydrate]	> 200
Cc1ccc2[nH]c3c(c2c1)CCNC3=O [Example 254, 1h-Pyrido[3,4-B]Indol-1-One,2,3,4,9-Tetrahydro-6-Methyl-]	> 200
O=C1NCCc2c1[nH]c1ccc(Br)cc21 [Example 117, 6-bromo-2,3,4,9-tetrahydro-1H-beta-carbolin-1-one]	69.6
COc1ccc2[nH]c3c(c2c1)C(Cc1ccc(CO)cc1)CNC3C(=O)O (stereo not drawn) [Example 114, 4-[4-(hydroxymethyl)benzyl]-6-methoxy-2,3,4,9-tetrahydro-1H-beta-carboline-1-carboxylic acid]	61.4
C=CCN1CCc2c([nH]c3ccc(OC)cc23)C1C(=O)OC (stereo not drawn) [Example 225, methyl 2-allyl-6-methoxy-2,3,4,9-tetrahydro-1H-beta-carboline-1-carboxylate]	> 200
COc1ccc2[nH]c3c(c2c1)C(Cc1ccc(OC(F)(F)F)cc1)CNC3C(=O)O (stereo not drawn) [Example 185, 6-methoxy-4-[4-(trifluoromethoxy)benzyl]-2,3,4,9-tetrahydro-1H-beta-carboline-1-carboxylic acid]	> 200
O=C1NCCc2c1[nH]c1ccc(F)cc21 [Example 261, 1H-Pyrido[3,4-b]indol-1-one,6-fluoro-2,3,4,9-tetrahydro- or 6-fluoro-2,3,4,9-tetrahydro-1H-beta-carbolin-1-one or 1h-Pyrido[3,4-B]Indol-1-One,6-Fluoro-2,3,4,9-Tetrahydro-]	> 200
O=C1NCCc2c1[nH]c1cccc(C(=O)N3CCOCC3)c21 [Example 251, 5-(morphoiln-4-ylcarbonyl)-2,3,4,9-tetrahydro-1H-beta-carbolin-1-one]	> 200
O=C1NCCc2c1[nH]c1cccc(C(=O)N3CCNCC3)c21 [Example 268, 5-(piperazin-1-ylcarbonyl)-2,3,4,9-tetrahydro-1H-beta-carbolin-1-one hydrochloride]	> 200
O=C1NCCc2c1[nH]c1c(Cl)ccc(Cl)c21 [Example 252, 5,8-dichloro-2,3,4,9-tetrahydro-1H-beta-carbolin-1-one]	> 200
